Data taken from patent publication US20230346820A1, “METHODS AND COMPOSITIONS FOR THE TREATMENT OF SARS-COV-2” (priority 2020, published 2023).
Counter-ions that a name gives are not always drawn. Like-named read-outs stand apart in the source and are kept apart here.

Experiments:
SARS-CoV-2 [1] = assay: Checkerboard synergy study with remdesivir (ZIP model, synergyfinder); type: cell-based; conditions: for Synergy score with remdesivir (δ): Table 3
[2] = human, oral; cited from earlier work
HeLa-ACE2 cells [3] = assay: cells; type: cell-based, human; conditions: Homo sapiens, HeLa-ACE2, read-out: HeLa-ACE-2 EC50 [μM] (Geomeans, n ≥ 2)
SARS-CoV-2 [4] = assay: microbe, parasite or virus in culture
SARS-CoV-2 [5] = assay: Time of addition (TOA) assay in HeLa-ACE2 cells; type: cell-based; conditions: for activity when treatment initiated at 1 hpi: 10 μM, HeLa-ACE2, time course 4 to 24 hpi
in vitro = conditions: human
SARS-CoV-2 [6] = assay: SARS-CoV-2 primary ALI HBEC model; type: cell-based; conditions: apical washes 72 hpi
Experimental: SARS-CoV-2 primary ALI HBEC model. Normal primary human bronchial epithelial cells (HBECs) (Lonza) were cultured in Millicell-96 cell culture insert plates with 1 μm PET filters (Sigma) at an air liquid interface for at least 4 weeks using PneumaCult™-ALI Medium (Stemcell Technologies). Briefly, the HBECs were first expanded in cell culture flasks before seeding 10,000 cells per well submerged in PneumaCult™-Ex Plus Medium. After 1 week, the cells were switched into PneumaCult™-ALI Medium and medium was removed from the apical surface. The air liquid interface was maintained, and the medium exchanged every 2-3 days for at least 4 weeks to allow for differentiation of the cells. Prior to infection, the apical surface was rinsed once with DPBS and compounds were added to the basolateral chamber. 20,000 PFU SARS-CoV-2 strain USA-WA1/2020 were added to the apical surface in 50 μL PBS and allowed to incubate for 2 h. The inoculum was then removed, and the cells rinsed once with DPBS. The medium was exchanged, and fresh compound added at 24 and 48 h post-infection. Apical washes were collected at 72 h post-infection by adding 100 μL DPBS to the apical surface for 15 minutes. RNA was isolated from the apical washes using the PureLink™ Pro 96 Viral RNA/DNA Purification Kit (Thermo Fisher) and analyzed for viral RNA levels by RT-qPCR using the SuperScript™ III Platinum™ One-Step qRT-PCR Kit (Thermo Fisher) and the 2019-nCoV N1 CDC Primers and Probe set (Integrated DNA Technologies). A standard curve was generated by isolating RNA from serial dilutions of the stock virus and used to determine the PFU equivalents/mL for each sample. The viral load reductions were then determined for each experimental compound treatment compared to the neutral DMSO control and plotted in log scale. Cytotoxicity was assessed by measuring LDH activity in the basolateral media using a Cytotoxicity Detection kit (LDH) (Sigma) following the manufacturer's instructions. […] Technical triplicates were run for both antiviral and cytotoxicity readouts. […]

SARS-CoV-2 [7] = conditions: for Calu3 SI CC50/CoV-2 EC50 / EC50: Table 4; for EC50: read-out: Calu-3 CoV-2 EC50, aggregated data, Geomean, n = 3, 48 h
SARS-CoV-2 [8] = conditions: for EC50: read-out: HeLa-ACE2 CoV-2 EC50, aggregated data, Geomean, n = 3; for EC50 / HeLa-ACE2 SI CC50/CoV-2 EC50: Table 4
HeLa-ACE2 cells [9] = conditions: read-out: HeLa-ACE2 Uninfected Tox CC50; Table 4; aggregated data, Geomean, n = 3
[10] = rat, oral; cited from earlier work
[11] = dog, oral; cited from earlier work
SARS-CoV-2 [12] = assay: Golden Syrian Hamster SARS-CoV-2 efficacy model; type: in vivo; conditions: for live viral titers in the lungs: day 5, plaque assay
[13] = Pharmacokinetic studies in Syrian hamsters; type: in vivo; conditions: single 500 mg/kg PO dose, hamster plasma
Experimental: Pharmacokinetic Studies. Pharmacokinetic studies were conducted at Scripps Research Institute's Animal Models Core in accordance with IACUC guidelines (IACUC Protocol #09-0004-5). Eight-week old male Syrian Hamsters (Charles River) (three per group) were dosed PO as indicated for each compound and formulation. Plasma concentration of each test article was monitored up to 48 h. Nelfinavir was formulated in 10% DMSO/90% corn oil and MK-4482 was formulated in 10% PEG400/2.5% Cremaphor RH40 for both pharmacokinetic and efficacy studies.

[14] = in vivo; cited from earlier work
[15] = Severe acute respiratory syndrome coronavirus 2, HeLa-ACE2, 24 h, read-out: CoV-2 EC50 [μM] (Geomeans, n ≥ 2)
[16] = Severe acute respiratory syndrome coronavirus 2, HeLa-ACE2, read-out: SARS CoV-2 EC50 (μM)
[17] = CC50 [μM] (Geomeans, n ≥ 2 except where indicated: *n = 1)
[18] = read-out: Calu-3 Uninfected Tox CC50, Table 4, aggregated data, Geomean, n = 3

Experimental for Calu-3 cells: To assess cell viability, 2 μL of 50% Cell-Titer Glo (Promega No G7573) diluted in water was added to the cells and luminescence measured on an EnVision Plate Reader (Perkin Elmer).
Data analysis. […] Primary in vitro screen and the host cell cytotoxicity counter screen data were uploaded to Genedata Screener, Version 16.0.3-Standard. […] For the uninfected host cell cytotoxicity counter screens, 40 μM puromycin (Sigma) was used as the positive (inhibitory) control in HeLa-ACE2, HepG2 and HEK293T cells, and 30 μM puromycin (Sigma) was used as the positive (inhibitory) control for Calu-3 cells. For dose response experiments compounds were tested in technical triplicates on different assay plates and dose curves were fitted with the four parameter Hill Equation. Technical replicate data were analyzed using median condensing. Geometric means and geometric standard deviations are reported for compound activities (EC50s and CC50s) obtained in multiple independent biological experiments. […] Geometric means were calculated by computing the logarithm (base 10) of all values, calculating the mean of these logarithms, and taking the antilog of that mean. Geometric standard deviations were computed by taking the standard deviation of the log-transformed individual values and taking the antilog of that standard deviation. The geometric standard deviation is a unitless ratio and reported as ×÷ instead of +/−.

Molecule	EC50 (SARS-CoV-2 [4]; [15]) [µM]	CC50 (in vitro; [17]) [µM]	CC50 (in vitro; Uninfected HeLa-ACE2 CC50 (μM)) [µM]	HeLa-ACE2 CC50/CoV-2 EC50 (SARS-CoV-2 [8])	CC50 (Calu-3 cells; [18]) [µM]	CC50 (HeLa-ACE2 cells [9]) [µM]	Calu3 SI CC50/CoV-2 EC50 (SARS-CoV-2 [7])	EC50 (SARS-CoV-2 [7]) [µM]	EC50 (SARS-CoV-2 [8]) [µM]	further results
Cc1cccc(/C=N/Nc2cc(N3CCOCC3)nc(OCCc3ccccn3)n2)c1 [Apilimod]	< 0.006	> 27.8	> 27.8	>4353.33	–	–	–	–	–	interaction with remdesivir (SARS-CoV-2 [1]): additive; Synergy score with remdesivir (δ) (SARS-CoV-2 [1]): 3.57; Cmax [2]: ~600 nM; t1/2 [2]: ~3 h (human, oral)(27); EC50 (HeLa-ACE2 cells [3]): > 9.6 µM; EC50 (SARS-CoV-2 [4]; [16]): < 0.006 µM; EC50 (SARS-CoV-2 [4]; Severe acute respiratory syndrome coronavirus 2, HeLa-ACE2, read-out: SARS-CoV-2 EC50): 0.184 µM; classification as entry inhibitor in HeLa-ACE2 cells (SARS-CoV-2 [5]): entry inhibitors; activity when treatment initiated at 1 hpi (SARS-CoV-2 [5]): Loss of activity; CC50 (in vitro; uninfected HeLa-ACE2 CC50): > 40 µM; viral replication in ALI-HBECs (SARS-CoV-2 [6]): did not; activity in Calu-3 infection assay (SARS-CoV-2 [7]): not active; increase in EC50 from MOI=1 to MOI=26 (SARS-CoV-2 [8]): 3.7 fold
O=c1[nH]c2ccc(C(F)(F)F)cc2c(-c2cc(Cl)ccc2O)c1CCO [BMS-223131]	–	–	–	–	> 29.9	21.4	>5.8	5.14	> 9.59	–
Cc1nc2c(s1)C(=O)C=C(NCCN(C)C)C2=O [BN-82685]	–	–	–	–	5.96	4.66	5.69	3.05	1.53	HeLa-ACE2 SI CC50/CoV-2 EC50 (SARS-CoV-2 [8]): 3.04
Nc1nccc2c1ncn2C1C=C(CO)C(O)C1O (centres unmarked) [DEAZANEPLANOCINA]	–	–	–	–	10.3	7.95	182.24	0.057	> 9.59	–
N#Cc1c(N)nc(N)nc1N[C@H](c1nc2c(F)ccc(Cl)c2c(=O)n1-c1cccnc1)C1CC1 [GS-9901]	3.81	> 31.1	> 31.1	>8.17	–	–	–	–	–	Cmax [10]: ~1800 nM; t1/2 [10]: ~2 h (rat, oral)(36)
COc1ccc2cc1Oc1ccc(cc1)C[C@H]1c3cc(c(OC)cc3CCN1C)Oc1c(OC)c(OC)cc3c1[C@H](C2)N(C)CC3 [Hanfangchin A]	1.18	> 18.9	> 18.9	>16.08	–	–	–	–	–	Synergy score with remdesivir (δ) (SARS-CoV-2 [1]): −3.61; Cmax [10]: ~500 nM; t1/2 [10]: ~20 h (rats, oral)(31); EC50 (SARS-CoV-2 [4]; [16]): 1.18 µM
O=S(=O)(Nc1ccc(CCNC[C@H](O)c2cccnc2)cc1)c1ccc(-c2nc(-c3ccc(C(F)(F)F)cc3)cs2)cc1 [L 796568]	1.04	5.51	5.51	5.28	–	–	–	–	–	EC50 (HeLa-ACE2 cells [3]): 3.14 µM; EC50 (SARS-CoV-2 [4]; [16]): 1.04 µM; Cmax [11]: ~300 nM; t1/2 [11]: ~14 h (dog, oral)(32)
CC(C)C(=O)OC[C@H]1O[C@@H](n2ccc(NO)nc2=O)[C@H](O)[C@@H]1O [MK-4482/EIDD-2801/Molnupiravir, Molnupiravir]	> 9.45	> 39.8	–	>4.21	–	–	–	–	–	viral reduction compared to vehicle control (SARS-CoV-2 [12]; 50 mg/kg PO BID, day 5): 99%; live viral titers in the lungs (SARS-CoV-2 [12]; 150 mg/kg PO BID): undetectable; host immune response (RNA Seq on hamster lungs) (SARS-CoV-2 [12]; 500 mg/kg PO BID): near-complete protection from host immune response; live viral titers in the lungs (SARS-CoV-2 [12]; 500 mg/kg PO BID): undetectable; lung histological examination (SARS-CoV-2 [12]; MK-4482-treated hamsters vs vehicle): protected; time over HeLa-ACE2 and Calu-3 EC50 [13]: ≥ 7 h; activity in HeLa-ACE2 infection assay (SARS-CoV-2 [8]): not active
NCCc1cn(S(=O)(=O)c2c(Cl)nc3sccn23)c2ccccc12 [SAX-187]	1.85	7.43	7.43	4.02	–	–	–	–	–	EC50 (HeLa-ACE2 cells [3]): > 9.37 µM; Cmax [10]: 400 nM; t1/2 [10]: ~3 h (rat, oral)(39); EC50 (SARS-CoV-2 [4]; [16]): 1.85 µM
Nc1nc2[nH]cnc2c(=S)[nH]1 [Tioguanine]	–	–	–	–	–	2.82	6.45	0.127	0.787	CC50 (Calu-3 cells): 0.822 µM; HeLa-ACE2 SI CC50/CoV-2 EC50 (SARS-CoV-2 [8]): 3.58
CN(C)C(C(=O)Nc1ccc2c(=O)[nH]ccc2c1)c1ccsc1 (centres unmarked) [Verosudil]	–	–	–	–	18.9	> 39.8	5.39	3.51	> 9.59	–
COC1(c2cc(F)cc(OCc3ccc4c(ccc(=O)n4C)c3)c2)CCOCC1 [ZD 2138]	–	–	–	–	14.4	28.7	5.18	2.79	> 9.59	–
CC(=O)OC[C@H]1O[C@@H]([S-])[C@H](OC(C)=O)[C@@H](OC(C)=O)[C@@H]1OC(C)=O.CCP(CC)CC.[Au+] [auranofin]	–	–	–	–	3.13	0.634	7.87	0.525	0.988	HeLa-ACE2 SI CC50/CoV-2 EC50 (SARS-CoV-2 [8]): 0.64
CC[C@H]1OC(=O)[C@H](C)[C@@H](O[C@H]2C[C@@](C)(OC)[C@@H](O)[C@H](C)O2)[C@H](C)[C@@H](O[C@@H]2O[C@H](C)C[C@H](N(C)C)[C@H]2O)[C@](C)(O)C[C@@H](C)CN(C)[C@H](C)[C@@H](O)[C@]1(C)O [azithromycin]	–	–	–	–	–	–	–	–	–	classification as entry inhibitor in HeLa-ACE2 cells (SARS-CoV-2 [5]): entry inhibitors; activity in Calu-3 infection assay (SARS-CoV-2 [7]): not active
CCN(CCO)CCCC(C)Nc1ccnc2cc(Cl)ccc12 (centres unmarked) [hydroxychloroquine, nasal, hydroxychloroquine]	0.458	> 18.3	> 18.3	>40.04	–	–	–	–	–	mortality of hospitalized COVID-19 patients [14]: failed to reduce mortality; Synergy score with remdesivir (δ) (SARS-CoV-2 [1]): −1.572; Cmax [2]: ~1700 nM; t1/2 [2]: ~55 h (human oral)(18); EC50 (SARS-CoV-2 [4]; [16]): 0.458 µM; classification as entry inhibitor in HeLa-ACE2 cells (SARS-CoV-2 [5]): entry inhibitors; activity when treatment initiated at 1 hpi (SARS-CoV-2 [5]): Loss of activity; activity in Calu-3 infection assay (SARS-CoV-2 [7]): not active
N=C(N)c1ccc2cc(OC(=O)c3ccc(N=C(N)N)cc3)ccc2c1 [nafamostat mesylate]	–	–	–	–	–	–	–	–	–	viral replication in ALI-HBECs (SARS-CoV-2 [6]): inhibited viral replication; activity in Calu-3 infection assay (SARS-CoV-2 [7]): active; activity in HeLa-ACE2 infection assay (SARS-CoV-2 [8]; text b101-b103): not active
Cc1c(O)cccc1C(=O)N[C@@H](CSc1ccccc1)[C@H](O)CN1C[C@H]2CCCC[C@H]2C[C@H]1C(=O)NC(C)(C)C [nelfinavir]	–	–	–	–	–	–	–	–	–	protection from weight loss and viral replication (SARS-CoV-2 [12]; 500 mg/kg PO BID): failed to protect animals from weight loss and viral replication; time over Calu-3 SARS-CoV-2 EC50 [13]: ~3 h
Antimycin A3	–	–	–	–	3.9	> 39.8	109.64	0.036	> 9.59	–
Cloturin	–	–	–	–	2.01	31.5	6.62	0.304	3.88	HeLa-ACE2 SI CC50/CoV-2 EC50 (SARS-CoV-2 [8]): 8.13
